Test results: patent publication US5817692A, “Endoperoxides useful as antiparasitic agents” (priority 1996, dated 1998)
Read-outs that look alike come from different tables or passages of the source.

What was measured:
Plasmodium falciparum = assay: antimalarial activity, tritiated-hypoxanthine incorporation assay in human red blood cells; type: cell-based; conditions: Erythrocyte, read-out: IC50 (inhibition of 50% of the replication of Plasmodium falciparum)
Protocol: (§1) The protozoan Plasmodium falciparum is a causative agent of malaria, the single most critical infectious disease of mankind. The antimalarial activity of the endoperoxides was determined according to the method of Desjardins et al. (16) as modified by Milhous et al. (17). Briefly, the antimalarial activity of the endoperoxides was tested in a tritiated-hypoxanthine incorporation assay by determining the concentration of the test compound needed to inhibit 50% of the replication of Plasmodium falciparum (IC50) in human red blood cells.
It is particularly noted that JHU 2886 has an excellent therapeutic index (ratio of activity to toxicity). At 1 μM, JHU 2886 has a therapeutic index of 70/0, whereas at the same concentration artimisinin has a therapeutic index of 76/10 (7.6), and atovaquone has a therapeutic index of only 95/17 (5.6). […] The first two compounds are known while the following five are being disclosed for the first time. […] Compounds of this formula wherein Ar is p-FCH2 Ph or p-HOCH2 Ph and X is CH2 are also expected to be particularly useful. […]

P. falciparum NF54 = assay: antimalarial activity, P. falciparum NF54 parasites in vitro; type: cell-based; conditions: Plasmodium falciparum
Protocol: as §1
Tables 4 and 5 show the structures and antimalarial activities of unsaturated and saturated bicyclic [2.2.2] endoperoxides of the invention. Compounds of this formula wherein R and R' are identical are particularly preferred. It is expected that compounds wherein R and R' are selected from the groups [drawing 33] will be especially useful. […]

[1] = P. falciparum NF54 parasites in vitro, read-out: Antimalarial Activity IC50
[2] = NF54, read-out: Antimalarial Activity IC50

IC50 (Plasmodium falciparum)	IC50 (P. falciparum NF54; [1])	SMILES	IC50 (P. falciparum NF54; [2])
150 nM	–	C1=CC2(c3ccccc3)CCCC1(c1ccccc1)OO2	–
> 1000 nM	–	CC1(C)CC2(c3ccccc3)CCC(c3ccccc3)(C1)OO2 [Ar = Ph, X = C(CH3)2]	–
89 nM	89 nM	c1ccc(C23CCCC(c4ccccc4)(CC2)OO3)cc1 [Ar = Ph, X = CH2]	–
> 1000 nM	–	O=S1(=O)CC2(c3ccccc3)CCC(c3ccccc3)(C1)OO2 [Ar = Ph, X = SO2]	–
> 1000 nM	–	c1ccc(C23CCC(c4ccccc4)(CC4(CCCCC4)C2)OO3)cc1 [Ar = Ph, X = drawing 40]	–
38 nM	–	Fc1ccc(C23CCCC(c4ccc(F)cc4)(CC2)OO3)cc1 [Ar = p-FPh, X = CH2]	–
62 nM	–	COc1ccc(C23CCCC(c4ccc(OC)cc4)(CC2)OO3)cc1 [Ar = p-MeOPh, X = CH2]	–
–	70 nM	Fc1ccc(C23C=CC(c4ccc(F)cc4)(CC2)OO3)cc1 [R = F, R' = F]	–
–	71 nM	Fc1ccc(C23C=CC(c4ccccc4)(CC2)OO3)cc1 (centres unmarked) [R = H, R' = F]	–
–	140 nM	Cc1ccc(C23C=CC(c4ccc(C)cc4)(CC2)OO3)cc1 [R = Me, R' = Me]	–
–	82 nM	FC(F)(F)c1ccc(C23CCC(c4ccc(C(F)(F)F)cc4)(CC2)OO3)cc1 [Table 5, R = CF3]	–
–	63 nM	Fc1ccc(C23CCC(c4ccc(F)cc4)(CC2)OO3)cc1 [Table 5, R = F]	–
–	210 nM	c1ccc(C23CCC(c4ccccc4)(CC2)OO3)cc1 [Table 5, R = H]	–
–	81 nM	OCc1ccc(C23CCCC(c4ccccc4)(CC2)OO3)cc1 (centres unmarked) [Table 6, R = CH2 OH]	–
–	–	CC(C)(C)[Si](C)(C)OCc1ccc(C23CCCC(c4ccccc4)(CC2)OO3)cc1 (centres unmarked) [Table 6, R = CH2 OSiMe2 Bu-t]	99 nM
–	42 nM	Fc1ccc(C23CCCC(c4ccccc4)(CC2)OO3)cc1 (centres unmarked) [Table 6, R = F]	–
–	> 2500 nM	Oc1ccc(C23CCCC(c4ccccc4)(CC2)OO3)cc1 (centres unmarked) [Table 6, R = OH]	–
–	–	CC(C)(C)[Si](C)(C)Oc1ccc(C23CCCC(c4ccccc4)(CC2)OO3)cc1 (centres unmarked) [Table 6, R = OSiMe2 Bu-t]	290 nM
650 nM	–	C1=CC2(c3ccccc3)CC1(c1ccccc1)OO2 [n = 1]	–
150 nM	180 nM	C1=CC2(c3ccccc3)CCC1(c1ccccc1)OO2 [n = 2]	–
410 nM	–	C1=CC2(c3ccccc3)CCCCC1(c1ccccc1)OO2 [n = 4]	–
